According to patent publication US20110065714A1, “SUBSTITUTED QUINAZOLINES” (Shire LLC, priority 2008, published 2011):

Tests used:
[1] = test system: human megakaryocytopoiesis; settings: cited from earlier work
[2] = test system: human phosphodiesterase III (PDE III); assay: PDE III inhibition; type: biochemical; settings: more potent than anagrelide
[3] = human, in vivo; cited from earlier work
[4] = pharmacokinetics of anagrelide and its metabolite in patients; type: in vivo, human; settings: typical exposures, greater than anagrelide
[5] = biological target: human phosphodiesterase III (PDE III); settings: cited from earlier work
[6] = test system: erythroid or myelomonocytic differentiation; settings: stimulated by erythropoietin or granulocyte-macrophage colony-stimulating factor; cited from earlier work

Row | SMILES | potency in inhibition of megakaryocytopoiesis relative to parent drug ([1]; compared with anagrelide) | potency as PDE III inhibitor relative to anagrelide [2] | typical half-life [3] | exposure in vivo relative to parent drug [4] | IC50 ([1]; in vitro, TPO-induced, read-out: estimated IC50 for inhibition of TPO-induced megakaryocytopoiesis) | IC50 [5] | effect on erythroid or myelomonocytic differentiation [6] | first pass effect [3]
1 | O=C1NC2=Nc3ccc(Cl)c(Cl)c3CN2C1O (stereo not shown) [3-hydroxyanagrelide] | no more potent than the parent drug | over 40 fold | 2.5 h | 2-3 fold |  |  |  | 
2 | O=C1CN2Cc3c(ccc(Cl)c3Cl)N=C2N1 [Anagrelide, 6,7-dichloro-1,5-dihydroimidazo[2,1-b]-quinazolin-2(3H)-one] |  |  | 1.5 h |  | ~26 nM | ~29 nM | does not affect | > 50%
3 | Cc1[nH]c(=O)c(C#N)cc1-c1ccncc1 [milrinone] |  |  |  |  |  | 170 to 350 nM |  | 
